Measured values reported in US20140228540A1, “POLYPEPTIDES THAT BIND TISSUE INHIBITOR OF METALLOPROTEINASE TYPE THREE (TIMP-3), COMPOSITIONS AND METHODS” (Amgen Inc., priority 2009, published 2014).
Numbering of substitutions follows the chain as printed.

Tests used:
[1] = tested on: biotinylated recombinant human or mouse TIMP-3; assay: TIMP-3 AlphaScreen binding assay
Description: Peptides were also evaluated by AlphaScreen® (Amplified Luminescent Proximity Homogeneous Assay; PerkinElmer, Waltham, Mass.) a very sensitive non-radioactive homogeneous assay technology that allows the screening of a large range of biological interactions and activities, substantially according to the manufacturer's instructions. Briefly, all dilutions are made in AlphaScreen® Buffer: [40 mM HEPES pH 7.5, 100 mM NaCl, 1 mM CaCl2, 0.1% BSA, 0.05% Tween-20]. The LRP-1 peptides are titrated in a separate polypropylene 96-well plate (Falcon) starting at 4 microM concentration and then diluted serially 3-fold for 12-points, with the last point buffer only. First 2 microL/well of protein titration curve is added to white, small volume, 384-well assay plate (Greiner Bio-One, Stonehouse, UK) in duplicate. Next, 2 microL of biotinylated (AFS, in-house conjmicroGation) recombinant human or mouse TIMP-3, is added at 12 nM (or 3 nM final assay concentration) to the assay plate. Lastly, in subdued light 4 microL of a mixture of streptavidin donor beads, anti-mouse IgG acceptor beads (PerkinElmer) both diluted to 20 microG/mL (10 microG/mL final assay concentration) and 2 nM (1 nM final concentration) rat-anti-HA (clone3F10)-HRP (Roche Diagnostics) is added to the plates. Plates containing 8 microL final assay volume are covered with TopSeal A (to prevent evaporation), spun quickly at 1000 rpm, and incubated overnight (covered with foil to prevent light exposure) before reading on Fusion plate reader (PerkinElmer) using AlphaScreen® parameters (excitation 680 nm and emission 520-620 nm). Data is analyzed using GraphPad Prism 4.01 software. Binding to TIMP-3 is reported as total signal (cps).

HuTIMP-3 [2] = target: T1, HuTIMP-3 (Homo sapiens, UniProt P35625); assay: Directly coated TIMP-3 binding ELISA (human); conditions: human TIMP-3; for EC50: direct
T1 sequence (P35625 24-211): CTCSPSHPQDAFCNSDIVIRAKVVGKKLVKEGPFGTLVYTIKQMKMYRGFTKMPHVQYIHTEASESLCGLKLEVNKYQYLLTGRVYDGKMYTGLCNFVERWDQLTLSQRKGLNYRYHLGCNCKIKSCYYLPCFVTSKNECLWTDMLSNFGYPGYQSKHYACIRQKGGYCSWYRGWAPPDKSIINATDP

MuTIMP-3 = target: T2, MuTIMP-3 (Mus musculus, UniProt P39876); assay: Directly coated TIMP-3 binding ELISA (mouse); conditions: mouse TIMP-3; for EC50: direct
T2 sequence (P39876 24-211): T1 sequence (P35625 24-211) with T51S, D87E, Q103H, I183S

HTB-94 cells = assay: Accumulation of TIMP-3 in the medium of cultured HTB-94 cells; assay type: cell-based
Description: This example describes an assay to evaluate the accumulation of TIMP-3 in the medium of cultured cells. HTB-94™ cells (a chondrocytic cell line available from the American Type Culture Collection, Manassas, Va.) are plated to 24-well tissue culture plates at 1×10̂5 cells per well in 1 ml growth medium (RPM11640, 10% FBS, 1% PSG), and incubated at 37 C, 5% CO2 overnight. The cells are then washed once with PBS, and the wells are replenished with 250 microL serum-free medium (RPM11640, 1% PSG; designated SF in the tables below) to which is added the polypeptide being tested or a control (for example medium containing heparin, 1 mg/ml). Proteins to be tested are diluted to appropriate concentrations, for example as shown in the Tables below, and added to the cells. Cells are then incubated at 37 C, 5% CO2 for two additional days, day 2 conditioned medium (CM) samples are collected and clarified by centrifugation (i.e., for 5 minutes at 10K RPM) and the supernatant fluid is collected and stored at −20 C until assayed. Analysis is done on 100 microL CM samples, either by Western blot or by using a standard human TIMP-3 ELISA as per the manufacturer's protocol (R&D Systems Inc., Minneapolis, Minn.).

HuTIMP-3 [3] = target: T1, HuTIMP-3; assay: Indirect binding ELISA with TIMP-3 presented via anti-TIMP-3 neutralizing antibody; conditions: human TIMP-3
Description: After incubation, the plate contents are discarded and 250 microL/well of blocking buffer (1% BSA, TBS [pH 7.5], 1 mM CaCl2) is added to the plate which is incubated with shaking for 1 hour at room temperature. The plate is then washed three times with 200 microL/well with wash buffer 1 (TBS [pH 7.5], 1 mM CaCl2) followed by the addition of 100 microL of 20 nM recombinant human TIMP-3. The plate is incubated at room temperature for 1 hour. The LRP-1 peptides are titrated as described previously, and 100 microL/well of the diluted LRP-1 peptide titration is added to the TIMP-3 coated plate and allowed to bind for 1.5 hour at room temperature with shaking. After incubation, the plate is washed and the ELISA performed substantially as described previously for the direct binding ELISA.

A549 cells = assay: Binding and internalization of exogenous TIMP-3 by confocal microscopy; assay type: cell-based, human; conditions: in the presence of heparin
Description: This example describes the internalization of exogenous TIMP-3 as examined by confocal microscopy. A549 cells (a continuous tumor-cell line from a human lung carcinoma with properties of type II alveolar epithelial cells, either wild-type or A549 cells lacking the LRP-1 gene) were incubated typically with 1 microG/ml TIMP-3 for 30 minutes at 4 degrees, with or without various pre-treatments (including heparin), then washed, fixed and stained with a fluorescently labeled anti-TIMP-3 antibody, or washed and then incubated further at 4 or 37 degrees before fixation and staining. Cells were also assayed for the accumulation of TIMP-3 in the culture medium, by Western blot or ELISA, substantially as described herein.

TIMP-3 = assay: Binding ELISA of LRP-1 peptides to TIMP-3 (Table 2; format and species not specified); design: species or system human or mouse; conditions: for EC50: Assay 2, read-out: Binding ELISA EC50 (nm) Assay 2
[4] = tested on: cultured chondrocytic cells; conditions: cited from earlier work
[5] = target: T3, inhibition of MMP-13 by TIMP-3 (Homo sapiens, UniProt P35625); assay: MMP-13 inhibition assay: effect of test molecules on inhibition of MMP-13 by TIMP-3; assay type: biochemical
T3 construct: purchased Calbiochem/EMD (active MMP-13)
T3 sequence (P35625 24-211): T1 sequence (P35625 24-211)
Description: Briefly, test molecules are titrated in assay buffer and added to black polystyrene 96 or 384 well assay plate (Griener Bio-One, Germany). The concentrations of the test molecules are dependant on the activity of the molecule; for example, titrations may begin at 1000, 2000 or 3000 nM and use five-fold dilutions for titration, although other types of titrations may be used or a single concentration may be tested. […] Active MMP-13 (Calbiochem/EMD,) is diluted in assay buffer to give a final assay concentration of 1.46 nM added to the test molecule titration/TIMP-3 mixture and incubated for 10 minutes at room temperature in a final volume of 50 microL. Alternatively, pro-MMP-13 (R & D Systems, Minneapolis, Minn.) is activated with aminophenyl mercuric acetate (APMA; Calbiochem/EMD,) for 2 hours at 37 degrees C., and used in the assay.
A fluorogenic substrate such as Mca-PLGL-Dpa-AR-NH2 Fluorogenic MMP Substrate or Mca-KPLGL-Dpa-AR-NH2 Fluorogenic Peptide Substrate (R & D Systems) is prepared to a final assay concentration of 20 microM in assay buffer, and added to the MMP-13 enzyme/huTIMP-3/test molecule solution. MMP-13 activity is measured kinetically for 20 minutes using Molecular Devices fluorescent plate reader. The effect of the molecules being tested is expressed as percent of expected maximum TIMP-3 inhibition of MMP-13 enzymatic activity.

LA28: LRP-1 peptide monomer, amino acids 3613-3653
AlphaScreen total signal (cps) Assay 1 [1]: 2,200 cps
EC50 (HuTIMP-3 [2]): > 1000 nM
EC50 (MuTIMP-3): > 1000 nM
TIMP-3 (ng/ml) in conditioned medium (HTB-94 cells; Table 7, peptides 2 microM): 0.99 ng/mL

LA7: LRP-1 peptide monomer, amino acids 1015- (end not printed)
AlphaScreen total signal (cps) Assay 1 [1]: 2,200 cps
EC50 (HuTIMP-3 [3]): > 1000 nM
EC50 (HuTIMP-3 [2]): > 1000 nM
EC50 (MuTIMP-3): > 1000 nM
TIMP-3 (ng/ml) in conditioned medium (HTB-94 cells; Table 6, peptides 2 microM): 0.90 ng/mL

heparin [reference compound]
TIMP-3 (ng/ml) in conditioned medium (HTB-94 cells; Table 5, heparin control (1 mg/ml per method)): 10.98 ng/mL
TIMP-3 (ng/ml) in conditioned medium (HTB-94 cells; Table 6, heparin control (1 mg/ml per method)): 14.55 ng/mL
TIMP-3 (ng/ml) in conditioned medium (HTB-94 cells; Table 7, heparin control (1 mg/ml per method)): 26.15 ng/mL
TIMP-3 (ng/ml) in conditioned medium (HTB-94 cells; Table 8, heparin control (1 mg/ml per method)): 17.31 ng/mL
Binding of TIMP-3 to the cell surface (A549 cells): decreased

LA15: LRP-1 peptide monomer, amino acids 2696- (end not printed)
AlphaScreen total signal (cps) Assay 1 [1]: 2,200 cps
AlphaScreen total signal (cps) Assay 2 [1]: 2,000 cps
EC50 (MuTIMP-3): > 1000 nM
TIMP-3 (ng/ml) in conditioned medium (HTB-94 cells; Table 6, peptides 2 microM): 1.29 ng/mL

LA5-6: LRP-1 peptide multimer, amino acids 931-1014
AlphaScreen total signal (cps) Assay 1 [1]: 6,000 cps
AlphaScreen total signal (cps) Assay 2 [1]: 4,000 cps
EC50 (HuTIMP-3 [2]): > 1000 nM
TIMP-3 (ng/ml) in conditioned medium (HTB-94 cells; Table 7, peptides 2 microM): 2.38 ng/mL

LA19: LRP-1 peptide monomer, amino acids 2858-2903
EC50 (TIMP-3): > 10000 nM
AlphaScreen total signal (cps) Assay 1 [1]: 2,200 cps
TIMP-3 (ng/ml) in conditioned medium (HTB-94 cells; Table 6, peptides 2 microM): 1.06 ng/mL

LA23: LRP-1 peptide monomer, amino acids 3413-3452
EC50 (TIMP-3): > 5000 nM
AlphaScreen total signal (cps) Assay 1 [1]: 2,200 cps
TIMP-3 (ng/ml) in conditioned medium (HTB-94 cells; Table 6, peptides 2 microM): 0.87 ng/mL

LA4: LRP-1 peptide monomer, amino acids 895-930
AlphaScreen total signal (cps) Assay 1 [1]: 2,200 cps
AlphaScreen total signal (cps) Assay 2 [1]: 2,000 cps
EC50 in TIMP-3 Binding ELISA, Indirect HuTIMP-3 (HuTIMP-3 [3]): no binding
EC50 in TIMP-3 Binding ELISA, Direct HuTIMP-3 (HuTIMP-3 [2]): no binding
EC50 in TIMP-3 Binding ELISA, Direct MuTIMP-3 (MuTIMP-3): no binding
TIMP-3 (ng/ml) in conditioned medium (HTB-94 cells; Table 6, peptides 2 microM): 1.07 ng/mL

LA8-10: LRP-1 peptide multimer, amino acids 1062- (end not printed)
AlphaScreen total signal (cps) Assay 1 [1]: 110,000 cps
AlphaScreen total signal (cps) Assay 2 [1]: 100,000 cps
EC50 (HuTIMP-3 [2]): > 1000 nM
TIMP-3 (ng/ml) in conditioned medium (HTB-94 cells; Table 7, peptides 2 microM): 3.91 ng/mL

B1: RAP: receptor associated protein, a general inhibitor of LRP-1 (protein, UniProt P30533 35-357, looked up)
Alpha-2-macroglobulin …: YSREKNQPKPSPKRESGEEFRMEKLNQLWEKAQRLHLPPVRLAELHADLKIQERDELAWKKLKLDGLDEDGEKEARLIRNLNVILAKYGLDGKKDARQVTSNSLSGTQEDGLDDPRLEKLWHKAKTSGKFSGEELDKLWREFLHHKEKVHEYNVLLETLSRTEEIHENVISPSDLSDIKGSVLHSRHTELKEKLRSINQGLDRLRRVSHQGYSTEAEFEEPRVIDLWDLAQSANLTDKELEAFREELKHFEAKIEKHNHYQKQLEIAHEKLRHAESVGDGERVSRSREKHALLEGRTKELGYTVKKHLQDLSGRISRARHNEL
levels of TIMP-3 in the medium of cultured chondrocytic cells [4]: increases

B2: Cluster II: LRP-1 peptide, amino acids 854-1184 of LRP-1; contains 8 ligand binding domains (protein)
chain: CQPGEFACANSRCIQERWKCDGDNDCLDNSDEAPALCHQHTCPSDRFKCENNRCIPNRWLCDGDNDCGNSEDESNATCSARTCPPNQFSCASGRCIPISWTCDLDDDCGDRSDESASCAYPTCFPLTQFTCNNGRCININWRCDNDNDCGDNSDEAGCSHSCSSTQFKCNSGRCIPEHWTCDGDNDCGDYSDETHANCTNQATRPPGGCHTDEFQCRLDGLCIPLRWRCDGDTDCMDSSDEKSCEGVTHVCDPSVKFGCKDSARCISKAWVCDGDNDCEDNSDEENCESLACRPPSHPCANNTSVCLPPDKLCDGNDDCGDGSDEGELCDQ
Binding to TIMP-3 (affinity, in words) (TIMP-3): submicromolar affinity
Effect on TIMP-3's inhibition of MMP-13 (in words) [5]: minimal effect
TIMP-3 (ng/ml) in conditioned medium (HTB-94 cells; Table 5, polypeptide 0.5 microM, listed as C II (prep 1)): 1.99 ng/mL
TIMP-3 (ng/ml) in conditioned medium (HTB-94 cells; Table 5, polypeptide 0.5 microM, listed as C II (prep 2)): 1.35 ng/mL
TIMP-3 (ng/ml) in conditioned medium (HTB-94 cells; Table 5, polypeptide 1 microM, listed as C II (prep 1)): 2.23 ng/mL
TIMP-3 (ng/ml) in conditioned medium (HTB-94 cells; Table 5, polypeptide 1 microM, listed as C II (prep 2)): 1.71 ng/mL
TIMP-3 (ng/ml) in conditioned medium (HTB-94 cells; Table 5, polypeptide 2 microM, listed as C II (prep 1)): 5.18 ng/mL
TIMP-3 (ng/ml) in conditioned medium (HTB-94 cells; Table 5, polypeptide 2 microM, listed as C II (prep 2)): 1.92 ng/mL
TIMP-3 (ng/ml) in conditioned medium (HTB-94 cells; Table 6, peptides 2 microM): 8.49 ng/mL
TIMP-3 (ng/ml) in conditioned medium (HTB-94 cells; Table 7, peptides 2 microM): 13.42 ng/mL
TIMP-3 (ng/ml) in conditioned medium (HTB-94 cells; Table 8, polypeptide 0.5 microM): 1.59 ng/mL
TIMP-3 (ng/ml) in conditioned medium (HTB-94 cells; Table 8, polypeptide 1 microM): 1.94 ng/mL
TIMP-3 (ng/ml) in conditioned medium (HTB-94 cells; Table 8, polypeptide 2 microM): 2.76 ng/mL
Accumulation of TIMP-3 in conditioned medium by Western blot (HTB-94 cells; Western blot): enhanced accumulation of TIMP-3
